According to patent US20250296955A1, “PIN1 TARGETING COMPOUNDS AND DEGRADERS AND METHODS THEREOF” (The Regents of the University of California, priority 2024, published 2025):
Where a SMILES comes first, the peptide text is derived from it. [ ]: non-standard residue; d: D form. The star is where a group is joined. Trp(6-Cl) = N[C@@H](Cc1c[nH]c2cc(Cl)ccc12)C(=O)O; Trp(5-F) = N[C@@H](Cc1c[nH]c2ccc(F)cc12)C(=O)O; Trp(7-Me) = Cc1cccc2c(C[C@H](N)C(=O)O)c[nH]c12; Pip = O=C(O)[C@@H]1CCCCN1; ClAc = O=C(CCl)*

Experiments:
Pin1 [1] = biological target: T1, Pin1 (Homo sapiens, UniProt Q13526); assay: Denaturation thermal shift assay (SYPRO Orange); format: binding; parameters: human Pin1 (residues 1-163); made in house; host or cells: E. coli BL21 (DE3) gold pLysS; settings: for ΔTm: running text and figure legends
Source text: (§1) Important to the success of structure activity relations studies, robust biochemical, biophysical, and cell-based assays were implemented that enabled rapid and iterative evaluations of test Pin1 targeting agents. First, the DELFIA (Dissociation-enhanced lanthanide fluorescent immunoassay) assay platform was used to derive a robust heterogeneous assay to monitor the ability of test agents to displace the binding between Pin1 and the D-Peptide (Table 1), which was obtained in a biotinylated form (FIG. 10). […] Second, for an orthogonal biophysical assay denaturation thermal shift measurements were used. Pin1 was incubated with vehicle control (buffer with 1% DMSO), or test agents at protein: ligand ratio of 1:2 (20 μM protein-40 μM compound) for 10 min at 10° C. in the presence of the fluorescent dye SYPRO Orange. The samples were gradually exposed to increasing temperature (linear gradient from 10° C. to 95° C.), causing the protein to unfold. This unfolding allowed the fluorescent dye to bind to the protein's exposed hydrophobic residues, resulting in an increase in fluorescence. The thermal shift assay measures the protein's melting temperature (Tm), which is the temperature at which the protein denatures by 50%. Ligands can affect a protein target to thermal denaturation, which could manifest in a positive or negative shift in the protein denaturation temperature (ΔTm) (Bai N, Roder H, Dickson A, & Karanicolas J (2019) Scientific Reports 9; and Kranz J K & Schalk-Hihi C (2011) Fragment-Based Drug Design: Tools, Practical Approaches, and Examples 493:277-298). Using these two assays, a series of commercially available Pin1 inhibitors were profiled (Table 1). The non-covalent agent D-peptide resulted only moderately active, with an IC50 value of ˜3 μM that closely resembled the dissociation constant for this agent determined via isothermal titration calorimetry, and the ˜ 3 μM IC50 value as reported by a fluorescence polarization assay (Pinch B J, et al. (2020) Nat Chem Biol 16(9):979-987). […] (Table 1) was observed.
Thermal shift assays for Pin1 alone and in the presence of the inhibitors were obtained with a BioRad CFX Connect Real-Time PCR Detection System. Each data point was collected in quadruplicate. Each sample was prepared using buffer 50 mM Phosphate pH 7.5, 150 mM NaCl, 1% DMSO. Protein: ligand ratio used was 1:2 (20 μM protein-40 μM compound), and SYPRO Orange was used. Incubation of the Pin1 protein with the compounds was performed at 10° C. for 10 min. Samples were then heated from 10 to 95° C. with heating increments of 0.05° C., over 30 min. Fluorescence intensity was measured within the excitation/emission ranges 470-505/540-700 nm.

Pin1 [2] = biological target: T1, Pin1; assay: Pin1 degradation in BxPC3 cells (western blot); format: cell-based; settings: Bx-PC3 cell line, 25 μM, 24 h (FIG. 1B)
Source text: Next, each cell line was exposed to a relatively high concentration of each of the Pin1 inhibitors from Table 1 and measured their ability to cause Pin1 degradation in the Bx-PC3 cell line under the experimental conditions reported in FIG. 1B. […] It was hypothesized that this observed degradation in the series correlated with the increased sensitivity of Pin1 to thermal degradation induced by BJP-07-017-3 in vitro (Table 1).
(§2) BxPC3, MIA PaCa-2, PANC-1, MDA-MB-231, and PC3 were obtained from the American Type Culture Collection (ATCC) and A549 NucLight Red cells were purchased from Essen Bioscience. BxPC3 and PC3 cells were cultured in RPMI (Corning) while PANC-1 cells were cultured in DMEM (Corning). MIA PaCa-2 cells were also cultured in DMEM, but with the addition of 2.5% horse serum. A549 NucLight cells were cultured in a Ham's F-12 nutriend mixture with GlutaMAX-1 (Gibco). All of the culture media were supplemented with 10% FBS. […]
(§3) At the end of the treatments, cells were lysed with a lysis buffer containing 20 mM Tris, pH 7.4, 120 mM NaCl, 1% Triton X-100, 0.5% sodium deoxycholate, 0.1% SDS, 1% IGEPAL, 5 mM EDTA, protease inhibitor cocktail and PhosSTOP (Sigma-Aldrich). […] Protein concentrations were determined using the Pierce BCA Protein Assay Kit (ThermoFisher Scientific) according to the manufacturer's instruction. […]

Pin1 [3] = biological target: T1, Pin1; assay: DELFIA displacement assay (displacement of biotinylated D-peptide from 6His-Pin1); format: binding; parameters: human Pin1 (residues 1-163); made in house; host or cells: E. coli BL21 (DE3) gold pLysS
Source text: as §1
For the reported covalent agents such as sulfopin (Dubiella C, et al. (2021) Nat Chem Biol 17(9):954-963), BJP-07-017-3 (Pinch B J, et al. (2020) Nat Chem Biol 16(9):979-987), or KPT-6566 (Campaner E, et al. (2017) Nat Commun 8:15772), a 6-h pre-incubation period was included in the DELFIA assay to allow the covalent reaction to take place. For those agents, IC50 values that fell in the low nanomolar range were observed, consistent with what was reported previously for those compounds. […] To make those determinations in a broader panel of cancer cell lines three pancreatic cancer cell lines, BxPC3, MIA-PaCa-2, and PANC-1, the breast cancer cell line MDA-MB-231, the prostate cancer cell line PC3, and the non-small cell lung cancer cell line A549 were chosen. Each cell line represents various states of KRAS activating mutations (for example BxPC3 is wt-KRAS, while MIAPaCa2 carries the KRAS(G12C) mutation, and the PANC-1 the KRAS(G12D) (Miquel M, Zhang S, & Pilarsky C (2021) Front Cell Dev Biol 9:748631), A549 is KRAS(G12S) (Wang H, et al. (2019) EBioMedicine 49:106-117), MDA-MB-231 is KRAS(G13D) (Kim R K, et al. (2015) Exp Mol Med 47(1):e137), PC3 is wt-KRAS (Bouali S, et al. (2009) Oncol Rep 21(3):731-735). Pin1 protein levels in these cell lines were established using a specific Pin1 antibody in western blot analyses (FIG. 1A). The data confirmed that all these selected human cancer cell lines expressed a significant level of Pin1 (FIG. 1A).
Each well of 96-well streptavidin-coated plates (PerkinElmer) was incubated with 100 μL of 200 nM biotinylated D-peptide for 2 h and washed 3 times with a wash solution (PerkinElmer). Subsequently, a mixture containing Pin1, and a serial dilution of the test compounds were pre-incubated for 6 h. Eu-N1-labeled anti-6x-His antibody (PerkinElmer, 1:2000) was then added to this mixture and further incubated in the biotinylated D-peptide-bound plates for another 2 h. […]

Pin1 [4] = biological target: T1, Pin1; assay: Pin1 degradation in a panel of human cancer cell lines (western blot); format: cell-based; settings: all cell lines, exposed to 5 μM, 24 h (FIG. 4); read-out: Dmax (the maximal level of degradation)
Method: In these studies, it was evident that both agents were very effective in degrading Pin1 in all tested human cancer cell lines with DC50 values (the concentration at which 50% degradation was observed)˜500 nM and Dmax (the maximal level of degradation) close to 100% with all cell lines when exposed to 5 μM of either agent (FIG. 4).
as §2, §3

[5] = Table 4, single transition, ± SE of four replicates
[6] = Table 4, percentage in brackets after first ΔTm
[7] = Table 4, percentage in brackets after second ΔTm
[8] = Table 4, two transitions observed, likely incomplete complex formation
[9] = Table 5, only one transition given

T1 sequence (Q13526 whole entry, the tested form may be a part): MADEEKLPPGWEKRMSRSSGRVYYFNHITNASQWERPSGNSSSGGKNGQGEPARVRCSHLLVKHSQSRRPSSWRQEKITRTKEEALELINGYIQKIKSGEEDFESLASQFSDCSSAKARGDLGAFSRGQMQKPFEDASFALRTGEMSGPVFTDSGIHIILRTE

CN(C(=O)CCl)[C@@H](Cc1ccccc1)C(=O)N1CCCC[C@H]1C(=O)N[C@@H](CC1CNc2ccccc21)C(=O)N[C@@H](CCCNC(N)=O)C(N)=O (stereo partly shown) [158A12, reference compound]
ΔTm (° C.) 30 min (Pin1 [1]; Table 1, Protein:compound 1:2, 20X Sypro Orange, 50 mM phosphate pH 7.5, 150 mM NaCl, 3% DMSO, ± SE of four replicates): −6.40 ± 0.04 °C | ΔTm (Pin1 [1]): −6.4 °C | Pin1 degradation in cell (Pin1 [2]): significant Pin1 degradation | IC50 (Pin1 [3]; Table 1, 6-h pre-incubation followed by 2-h incubation, ± SD from duplicates): 9 ± 1 nM

Cc1cccc2c(C[C@H](NC(=O)CCl)C(=O)N3CCCC[C@H]3C(=O)N[C@@H](Cc3c[nH]c4ccccc34)C(N)=O)c[nH]c12 [158H7] (ClAc-[Trp(7-Me)]-[Pip]-Trp-NH2)
ΔTm (° C.) (Pin1 [1]; [5]): −10.11 ± 0.20 °C | IC50 (Pin1 [3]; Table 4, ± SD from duplicates): 91 ± 9 nM

NC(=O)[C@H](Cc1c[nH]c2ccccc12)NC(=O)[C@@H]1CCCCN1C(=O)[C@H](Cc1c[nH]c2ccc(F)cc12)NC(=O)CCl [158H8] (ClAc-[Trp(5-F)]-[Pip]-Trp-NH2)
ΔTm (° C.) (Pin1 [1]; [5]): −9.81 ± 0.16 °C | IC50 (Pin1 [3]; Table 4, ± SD from duplicates): 43.5 ± 0.8 nM

NC(=O)[C@H](Cc1c[nH]c2ccccc12)NC(=O)[C@@H]1CCCCN1C(=O)[C@H](Cc1c[nH]c2cc(Cl)ccc12)NC(=O)CCl [158H9] (ClAc-[Trp(6-Cl)]-[Pip]-Trp-NH2)
Dmax (Pin1 [4]): ~100% | ΔTm (Pin1 [1]): −8.41 °C

NC(=O)[C@H](Cc1c[nH]c2cc(Cl)ccc12)NC(=O)[C@@H]1CCCCN1C(=O)[C@H](Cc1c[nH]c2ccccc12)NC(=O)CCl [158H12] (ClAc-Trp-[Pip]-[Trp(6-Cl)]-NH2)
ΔTm (° C.) (Pin1 [1]; [5]): −9.21 ± 0.08 °C | IC50 (Pin1 [3]; Table 4, ± SD from duplicates): 31 ± 1 nM

NC(=O)[C@H](Cc1c[nH]c2ccccc12)NC(=O)[C@@H]1C[C@H]2CCCC[C@@H]2N1C(=O)[C@H](Cc1c[nH]c2ccccc12)NC(=O)CCl [164A1]
share of first denaturation transition (Pin1 [1]; [6]): 80% | share of second denaturation transition (Pin1 [1]; [7]): 20% | ΔTm (° C.), first of two denaturation transitions (Pin1 [1]; [8]): −0.38 ± 0.15 °C | IC50 (Pin1 [3]; Table 5): 1830 ± 394 nM

O=C(CCl)N[C@@H](Cc1cccc(O)c1)C(=O)N1CCCC[C@H]1C(=O)NCCc1c[nH]c2cc(Cl)cc(Cl)c12 [164A2]
share of first thermal shift peak (Pin1 [1]; Table 3, percentage in brackets after first ΔTm): 10% | share of second thermal shift peak (Pin1 [1]; Table 3, percentage in brackets after second ΔTm): 90% | ΔTm (° C.), first of two peaks (Pin1 [1]; Table 3, two peaks observed, likely incomplete complex formation): −0.25 ± 0.31 °C | IC50 (Pin1 [3]; Table 3, ± SD from duplicates): 289 ± 23 nM

O=C(CCl)N[C@@H](Cc1c[nH]c2ccccc12)C(=O)N1CCCC[C@H]1C(=O)NCCc1c[nH]c2cc(Cl)cc(Cl)c12 [164A3]
ΔTm (° C.) (Pin1 [1]; [9]): −13.68 ± 0.20 °C | IC50 (Pin1 [3]; Table 5): 1180 ± 45 nM

NC(=O)[C@H](Cc1c[nH]c2ccccc12)NC(=O)[C@@H]1C[C@H]2CCCC[C@@H]2N1C(=O)[C@@H]1Cc2c([nH]c3ccccc23)CN1C(=O)CCl [164A4]
ΔTm (° C.) (Pin1 [1]; [5]): −20.46 ± 0.04 °C | IC50 (Pin1 [3]; Table 4, ± SD from duplicates): 35 ± 5 nM

O=C(NCCc1c[nH]c2cc(Cl)cc(Cl)c12)[C@@H]1CCCCN1C(=O)[C@@H]1Cc2c([nH]c3ccccc23)CN1C(=O)CCl [164A5]
share of first denaturation transition (Pin1 [1]; [6]): 70% | share of second denaturation transition (Pin1 [1]; [7]): 30% | ΔTm (° C.), first of two denaturation transitions (Pin1 [1]; [8]): +0.66 ± 0.28 °C | ΔTm (° C.) (Pin1 [1]; [9]): +0.66 ± 0.28 °C | IC50 (Pin1 [3]; Table 4, ± SD from duplicates): 433 ± 65 nM

NC(=O)[C@H](Cc1c[nH]c2ccc(F)cc12)NC(=O)[C@@H]1CCCCN1C(=O)[C@@H]1Cc2c([nH]c3ccccc23)CN1C(=O)CCl [164A10]
Dmax (Pin1 [4]): ~100% | ΔTm (Pin1 [1]): −8.95 °C

CC1(C)[C@H]2C[C@@H](C(=O)N[C@@H](Cc3c[nH]c4ccccc34)C(N)=O)N(C(=O)[C@@H]3Cc4c([nH]c5ccccc45)CN3C(=O)CCl)[C@H]21 [164A12]
share of first denaturation transition (Pin1 [1]; [6]): 30% | share of second denaturation transition (Pin1 [1]; [7]): 70% | ΔTm (° C.), first of two denaturation transitions (Pin1 [1]; [8]): +1.03 ± 0.13 °C | ΔTm (° C.), second printed of two denaturation transitions (Pin1 [1]; [8]): −19.18 ± 0.07 °C | IC50 (Pin1 [3]; Table 4, ± SD from duplicates): 44 ± 1 nM

CC(C)(C)CN(C(=O)CCl)C1CCS(=O)(=O)C1 (stereo not shown) [Sulfopin]
Pin1 degradation in cell (Pin1 [2]): significant Pin1 degradation
